Where a SMILES comes first, the peptide text is derived from it. Bridges are numbered along the chain shown (N, C = ends). [ ]: non-standard residue; d: D form. The star is where a group is joined. hPhe(3-Cl-4-CF3) = N[C@@H](CCc1ccc(C(F)(F)F)c(Cl)c1)C(=O)O; NPrPhe(4-CF3) = CCCN[C@@H](Cc1ccc(C(F)(F)F)cc1)C(=O)O; NMeGly(cPent) = CN[C@H](C(=O)O)C1CCCC1; Ac4c(3,3-Me2) = CC1(C)CC(N)(C(=O)O)C1; Hyp = O=C(O)[C@@H]1C[C@@H](O)CN1; NMeD = CN[C@@H](CC(=O)O)C(=O)O; NMeL = CN[C@@H](CC(C)C)C(=O)O; Morpholide = C1CN(*)CCO1; NMeA = CN[C@@H](C)C(=O)O; Aze = O=C(O)[C@@H]1CCN1; Ac4c = NC1(C(=O)O)CCC1; Sar = CNCC(=O)O
Experiments:
[1] = molecular target: GDP-bound HRAS wild-type protein (Homo sapiens, UniProt P01112); experiment: Binding to HRAS by surface plasmon resonance (SPR), Single Cycle Kinetics; settings: SPR; for HRAS/KRAS (ratio of KD value with respect to HRAS to KD value with respect to KRAS) / HRAS/KRAS (ratio of KD value for HRAS to KD value for KRAS): GDP-bound HRAS wild-type vs GDP-bound KRAS wild-type
GDP-bound HRAS wild-type protein, sequence (P01112 whole entry): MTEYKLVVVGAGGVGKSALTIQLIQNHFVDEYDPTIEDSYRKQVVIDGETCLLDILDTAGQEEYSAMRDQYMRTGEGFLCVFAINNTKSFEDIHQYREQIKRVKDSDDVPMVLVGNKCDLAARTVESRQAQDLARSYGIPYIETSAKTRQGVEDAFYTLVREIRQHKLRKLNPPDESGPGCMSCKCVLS

[2] = molecular target: GDP-bound NRAS wild-type protein (Homo sapiens, UniProt P01111); experiment: Binding to NRAS by surface plasmon resonance (SPR), Single Cycle Kinetics; settings: SPR; for NRAS/KRAS (ratio of KD value with respect to NRAS to KD value with respect to KRAS) / NRAS/KRAS (ratio of KD value for NRAS to KD value for KRAS): GDP-bound NRAS wild-type vs GDP-bound KRAS wild-type
GDP-bound NRAS wild-type protein, sequence (P01111 whole entry): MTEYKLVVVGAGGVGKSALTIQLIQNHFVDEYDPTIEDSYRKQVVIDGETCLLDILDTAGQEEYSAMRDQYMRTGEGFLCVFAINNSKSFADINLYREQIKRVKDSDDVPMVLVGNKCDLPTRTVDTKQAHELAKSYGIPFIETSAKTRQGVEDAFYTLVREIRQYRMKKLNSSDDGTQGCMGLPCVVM

SMILES: CCCOC[C@H]1C(=O)N[C@@H]([C@@H](C)CC)C(=O)N(C)CC(=O)N(C)[C@H]2C/C=C\CCN(C2=O)[C@@H](Cc2ccc(C)cc2)C(=O)N(C)CC(=O)N[C@@H](CCc2cc(F)c(C(F)(F)F)c(F)c2)C(=O)N2C[C@@H](C)C[C@H]2C(=O)NC2(CC(C)(C)C2)C(=O)N(C)[C@@H](C2CCCC2)C(=O)N(C)[C@H](C(=O)N(C)CC)CC(=O)N1C [PP2471]
- HRAS/KRAS (ratio of KD value with respect to HRAS to KD value with respect to KRAS) [1]: A (a compound having 10 or more and less than 20 is denoted as A)
- NRAS/KRAS (ratio of KD value with respect to NRAS to KD value with respect to KRAS) [2]: A (a compound having 10 or more and less than 20 is denoted as A)

SMILES: CCO[C@@H]1C[C@H]2C(=O)NC3(CCC3)C(=O)N(C)[C@@H](C3CCCC3)C(=O)N(C)[C@H](C(=O)N(CC)CC)CC(=O)N(C)[C@@H](CC(C)C)C(=O)N[C@@H]([C@@H](C)CC)C(=O)N(C)CC(=O)N(C)[C@H]3C/C=C\CCN(C3=O)[C@@H](Cc3ccc(C)cc3)C(=O)N(C)CC(=O)N[C@@H](CCc3ccc(C(F)(F)F)c(OC)c3)C(=O)N2C1 [PP1851]
- HRAS/KRAS (ratio of KD value for HRAS to KD value for KRAS) [1]: A (a compound having 10 or more and less than 20 is denoted as A)
- NRAS/KRAS (ratio of KD value for NRAS to KD value for KRAS) [2]: A (a compound having 10 or more and less than 20 is denoted as A)

SMILES: CCCN1C(=O)[C@@H]2CCN2C(=O)[C@H](C)N(C)C(=O)[C@H]([C@@H](C)CC)NC(=O)[C@H](CC(C)C)N(C)C(=O)C[C@@H](C(=O)N2CCOCC2)N(C)C(=O)[C@H](C2CCCC2)N(C)C(=O)C2(CCC2)NC(=O)[C@@H]2C[C@@H](OCC)CN2C(=O)[C@H](CCc2ccc(C(F)(F)F)c(Cl)c2)NC(=O)CN(C)C(=O)[C@@H]1Cc1ccc(C(F)(F)F)cc1 [PP0406] ([NMeL]I[NMeA][Aze][NPrPhe(4-CF3)][Sar][hPhe(3-Cl-4-CF3)][Hyp](Et)[Ac4c][NMeGly(cPent)][NMeD]-Morpholide; lactam N-11)
- HRAS/KRAS (ratio of KD for GDP-bound HRAS wild-type to KD for KRAS) ([1]; KD ratio HRAS/KRAS): B (a compound having 3 or more and less than 10 is denoted as B)
- NRAS/KRAS (ratio of KD for GDP-bound NRAS wild-type to KD for KRAS) ([2]; KD ratio NRAS/KRAS): C (A compound having a KD ratio of 0.1 or more and less than 3 is denoted as C)

SMILES: CC[C@H](C)[C@@H]1NC(=O)[C@H](COC)N(C)C(=O)C[C@@H](C(=O)N(C)C)N(C)C(=O)[C@H](C2CCCC2)N(C)C(=O)C2(CC(C)(C)C2)NC(=O)[C@@H]2C[C@H](C)CN2C(=O)[C@H](CCc2ccc(C(F)(F)F)c(Cl)c2)NC(=O)CN(C)C(=O)[C@H](Cc2ccc(C)cc2)N2CC/C=C\C[C@@H](C2=O)N(C)C(=O)CN(C)C1=O [PP2502]
- HRAS/KRAS (ratio of KD value with respect to HRAS to KD value with respect to KRAS) [1]: A (a compound having 10 or more and less than 20 is denoted as A)
- NRAS/KRAS (ratio of KD value with respect to NRAS to KD value with respect to KRAS) [2]: A (a compound having 10 or more and less than 20 is denoted as A)

SMILES: CCCN1C(=O)CN(C)C(=O)CN(C)C(=O)[C@H]([C@@H](C)OCC)NC(=O)[C@H](CC(C)C)N(C)C(=O)C[C@@H](C(=O)N2CCOCC2)N(C)C(=O)[C@H](C2CCCC2)N(C)C(=O)C2(CC(C)(C)C2)NC(=O)[C@@H]2CCCN2C(=O)[C@H](CCc2ccc(C(F)(F)F)c(Cl)c2)NC(=O)CN(C)C(=O)[C@@H]1Cc1ccc(C(F)(F)F)cc1 [PP1964] ([NMeL]T(Et)[Sar][Sar][NPrPhe(4-CF3)][Sar][hPhe(3-Cl-4-CF3)]P[Ac4c(3,3-Me2)][NMeGly(cPent)][NMeD]-Morpholide; lactam N-11)
- HRAS/KRAS (ratio of KD value for HRAS to KD value for KRAS) [1]: B (a compound having 3 or more and less than 10 is denoted as B)
- NRAS/KRAS (ratio of KD value for NRAS to KD value for KRAS) [2]: B (a compound having 3 or more and less than 10 is denoted as B)

SMILES: CC[C@H](C)[C@@H]1NC(=O)[C@H](CC(C)C)N(C)C(=O)C[C@@H](C(=O)N2CCOCC2)N(C)C(=O)[C@H](C2CCCC2)N(C)C(=O)C2(COC2)NC(=O)[C@@H]2CCCN2C(=O)[C@H](CCc2cc(F)c(C(F)(F)F)c(F)c2)NC(=O)CN(C)C(=O)[C@H](Cc2ccc(C(F)(F)F)cc2)N2CCCC[C@@H](C2=O)N(C)C(=O)CN(C)C1=O [PP0563]
- HRAS/KRAS (ratio of KD value with respect to GDP-bound HRAS wild-type protein to KD value with respect to KRAS) ([1]; KD ratio HRAS/KRAS): B (a compound having 3 or more and less than 10 is denoted as B)
- NRAS/KRAS (ratio of KD value with respect to GDP-bound NRAS wild-type protein to KD value with respect to KRAS) ([2]; KD ratio NRAS/KRAS): B (a compound having 3 or more and less than 10 is denoted as B)

SMILES: CCOC[C@H]1C(=O)N[C@@H]([C@@H](C)CC)C(=O)N(C2CC2)CC(=O)N(C)[C@H]2C/C=C\CCN(C2=O)[C@@H](CC2CCCCC2)C(=O)N(C)CC(=O)N[C@@H](CCc2ccc(C(F)(F)F)c(OC)c2)C(=O)N2C[C@@H](C)C[C@H]2C(=O)N(C)C2(CCC2)C(=O)N(C)[C@@H](C2CCCC2)C(=O)N(C)[C@H](C(=O)N(C)C)CC(=O)N1C [PP2373]
- HRAS/KRAS (ratio of KD value with respect to HRAS to KD value with respect to KRAS) [1]: A (a compound having 10 or more and less than 20 is denoted as A)
- NRAS/KRAS (ratio of KD value with respect to NRAS to KD value with respect to KRAS) [2]: A (a compound having 10 or more and less than 20 is denoted as A)
